One data set has as its system primary rat hepatocytes. Nature of the data set: In vitro cytotoxicity against normal cells. Conditions: Hepatocyte, read-out: IC50 primary rat hepatocytes.
For data set [1], the system named is HepG2 (human liver carcinoma cell line). In words: MTT cytotoxicity assay, HepG2. Type of data set: cell-based. Conditions: mean of at least three different experiments. How it is done: (§1) In vitro cytotoxicity was carried out using MTT assay protocol[47]^,[65–67] as described in Supplementary data.
For data set [2], the system named is MCF-7 (human breast cancer cell line). Nature of the data set: MTT cytotoxicity assay, MCF-7. In kind it is cell-based. Conditions: for IC50: Homo sapiens, MCF7, MTT assay, mean of at least three different experiments; for Cytotoxic activity against the two cell lines (in words): MCF-7 and HepG2 together. How it is done: as §1
The subject of another data set is caspase-9. In words: Western blot, caspase-9 level in HepG2. Type of data set: cell-based, human. Conditions: HepG2, 2.1 µM, 24 h; compared to control cells. How it is done: (§2) To investigate the effect of the synthesised compounds on caspase-3 and caspase-9 levels, the most promising member 11e was applied on the most sensitive cells (HepG2) at a concentration of 2.1 µM for 24 h.
(§3) Western blot technique was applied to assess the potential effect of compound 11e on the expression of caspase‐9, caspase‐3, BAX, and Bcl‐2 as reported in Supplementary data[77–79].

For another data set, the system named is BAX. In words: Western blot, BAX level in HepG2. In kind it is cell-based, human. The following applies: HepG2, 24 h. How it is done:
(§4) Compound 11e as a promising member was investigated to evaluate its effect on BAX and Bcl-2 after 24 h of its application on HepG2 cells using Western blot technique.
as §3

In a further data set the test system is Bcl-2. Nature of the data set: Western blot, Bcl-2 level in HepG2. In kind it is cell-based, human. Conditions: HepG2, 24 h. How it is done:
as §4, §3

Data set [3] relates to HepG2 cells. In words: Apoptosis analysis (Annexin-V/propidium iodide staining). Type of data set: cell-based, human. The following applies: HepG2, 2.1 µM, 24 h. How it is done:
To quantify the apoptosis triggered by 11e, Annexin-V/propidium iodide (PI) staining assay was conducted. In such procedure, compound 11e at a concentration of 2.1 µM was applied on HepG2 cells. Then, the media were incubated for 24 h. […] In details, compound 11e induced apoptosis by 49.14% (early apoptosis = 48.87% & late apoptosis = 0.27%), compared to 9.71% in the control cells (early apoptosis = 9.58% & late apoptosis = 0.13%).
The effect of compound 11e on cell apoptosis was investigated as described in Supplementary data[74–76].

For another data set, the target named is Human VEGFR-2 (Homo sapiens, UniProt P35968). Nature of the data set: In vitro VEGFR-2 kinase assay (Human VEGFR-2 ELISA kit).
In another data set the test system is caspase-3. In words: Western blot, caspase-3 level in HepG2. In kind it is cell-based, human. Conditions: HepG2, 2.1 µM, 24 h; compared to control cells. How it is done:
as §2, §3

Data set [4] relates to HepG2 cells. In words: Cell cycle analysis (propidium iodide staining, flow cytometry). In kind it is cell-based, human. Conditions: HepG2, 2.1 µM, 24 h. How it is done: HepG2 cells were used as a control without treatment by compound 11e.
The effect of compound 11e on cell cycle distribution was performed using propidium iodide (PI) staining technique as described in Supplementary data[71–73].

The mark [5] stands for this setting: mean ± SD of three experiments, listed as Compound 11e.

Experimental findings from PMC8330740, “Discovery of new 3-methylquinoxalines as potential anti-cancer agents and apoptosis inducers targeting VEGFR-2: design, synthesis, and in silico studies” (Journal of Enzyme Inhibition and Medicinal Chemistry, 2021) are described below.

The structures appear in SMILES notation.

Human VEGFR-2, sequence (P35968 20-1356): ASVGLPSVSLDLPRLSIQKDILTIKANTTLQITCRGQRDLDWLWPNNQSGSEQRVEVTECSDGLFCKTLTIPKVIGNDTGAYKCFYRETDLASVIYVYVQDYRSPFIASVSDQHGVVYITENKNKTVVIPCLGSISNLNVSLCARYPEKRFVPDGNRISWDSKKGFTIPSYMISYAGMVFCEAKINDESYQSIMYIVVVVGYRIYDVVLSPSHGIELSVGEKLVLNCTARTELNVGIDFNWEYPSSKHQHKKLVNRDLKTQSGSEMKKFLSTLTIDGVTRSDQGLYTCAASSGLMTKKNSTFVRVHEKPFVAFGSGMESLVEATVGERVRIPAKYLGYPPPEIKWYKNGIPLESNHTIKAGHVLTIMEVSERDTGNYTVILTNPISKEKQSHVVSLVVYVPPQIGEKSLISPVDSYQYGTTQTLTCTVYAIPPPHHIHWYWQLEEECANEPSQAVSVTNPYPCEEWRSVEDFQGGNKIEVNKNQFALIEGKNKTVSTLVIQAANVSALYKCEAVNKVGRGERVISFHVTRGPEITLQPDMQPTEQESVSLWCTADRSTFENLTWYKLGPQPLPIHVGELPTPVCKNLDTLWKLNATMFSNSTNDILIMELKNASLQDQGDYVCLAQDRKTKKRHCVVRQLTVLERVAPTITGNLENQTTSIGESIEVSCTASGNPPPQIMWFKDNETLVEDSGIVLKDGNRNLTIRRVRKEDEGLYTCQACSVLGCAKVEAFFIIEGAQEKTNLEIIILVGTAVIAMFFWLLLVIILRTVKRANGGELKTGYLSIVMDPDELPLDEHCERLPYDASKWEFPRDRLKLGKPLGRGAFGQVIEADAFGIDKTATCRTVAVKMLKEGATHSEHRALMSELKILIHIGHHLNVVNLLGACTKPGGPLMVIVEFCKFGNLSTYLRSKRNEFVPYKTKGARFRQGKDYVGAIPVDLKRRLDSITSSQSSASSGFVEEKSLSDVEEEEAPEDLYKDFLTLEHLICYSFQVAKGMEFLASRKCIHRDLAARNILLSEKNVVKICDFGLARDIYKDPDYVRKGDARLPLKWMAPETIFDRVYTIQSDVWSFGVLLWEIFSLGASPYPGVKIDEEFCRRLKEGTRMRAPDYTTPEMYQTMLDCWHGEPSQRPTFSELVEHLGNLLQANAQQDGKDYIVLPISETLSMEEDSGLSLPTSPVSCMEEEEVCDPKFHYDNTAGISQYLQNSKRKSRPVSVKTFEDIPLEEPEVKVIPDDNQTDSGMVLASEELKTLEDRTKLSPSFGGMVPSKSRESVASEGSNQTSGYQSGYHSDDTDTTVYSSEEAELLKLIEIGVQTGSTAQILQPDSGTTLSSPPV

Take `CNC(=O)c1cc(Oc2ccc(NC(=O)Nc3ccc(Cl)c(C(F)(F)F)c3)cc2)ccn1` [Sorafenib, reference compound]: the IC50 is 13.4 µM in the data set with primary rat hepatocytes, 2.2 µM in [1] and 3.4 µM in [2].
For the compound `COc1cccc(NC(=O)c2ccc(NC(=O)Cn3c(=O)c(C)nc4ccccc43)cc2)c1` [Compound 11e, N-(3-Methoxyphenyl)-4–(2-(3-methyl-2-oxoquinoxalin-1(2H)-yl)acetamido)benzamide], the IC50 was determined as 15 µM in the data set with primary rat hepatocytes, 2.1 µM in data set [1], 2.7 µM in [2] and 0.0026 µM at Human VEGFR-2. In the data set with caspase-9, the “increase in the level of caspase-9” value is listed as 2.34 fold. In addition, in the data set with BAX, the BAX level increase was determined as 3.14 fold. Moreover, the BAX/Bcl-2 ratio in the data set on BAX was found to be 9.17. Also, the Bcl-2 level decrease in the data set on Bcl-2 was 3.13 fold. The “induced apoptosis (early + late)” value with HepG2 cells [3] (control 9.71%) amounted to 49.14%. The results for the “Apoptosis Early (Right Bottom)” value in the data set on HepG2 cells [3] (mean ± SD of three experiments) and in the data set on HepG2 cells [3] (setting [5]) were 48.87% and 48.87 ± 3.69%, respectively. Moreover, the entries for the “Apoptosis Late (Right Top)” value with HepG2 cells [3] (mean ± SD of three experiments) and with HepG2 cells [3] (setting [5]) were 0.27% and 0.27 ± 0.04%, respectively. Besides, the “Necrosis (Left Top)” value with HepG2 cells [3] (mean ± SD of three experiments) is on record as 0.20 ± 0.03. Besides, the viability at 2.1 µM in the data set with HepG2 cells [3] (Homo sapiens, mean ± SD of three experiments, read-out: Viable (Left Bottom)) worked out at 50.6 ± 3.66%. The “increase in the level of caspase-3” value with caspase-3 was determined as 2.34 fold. For the same compound, the “phase at which HepG2 cell growth is arrested” value with HepG2 cells [4] is listed as “G2/M phase”. For the same compound, the “percentage of cells at the G2/M phase” value in the data set on HepG2 cells [4] (control 18.24%) was determined as 46.62%. Further, in the data set with HepG2 cells [4] (control 25.48), the “percentage of cells at the S phase” value came out at 31.80%. The “percentage of cells at G1 phase” value with HepG2 cells [4] (control 55.03%) came out at 20.34%.
In the case of `CCC(C)NC(=O)c1ccc(NC(=O)Cn2c(=O)c(C)nc3ccccc32)cc1` (centres unmarked) [Compound 11b, N-(sec-Butyl)-4–(2-(3-methyl-2-oxoquinoxalin-1(2H)-yl)acetamido)benzamide], the IC50 in [1] is 12.8 µM; in data set [2] it was 21.2 µM; on Human VEGFR-2, 0.0053 µM.
Take `Cc1nc2ccccc2n(CC(=O)Nc2ccc(C(=O)Nc3ccccn3)cc2)c1=O` [Compound 11i, 4–(2-(3-Methyl-2-oxoquinoxalin-1(2H)-yl)acetamido)-N-(pyridin-2-yl)benzamide]: the results for the half-inhibitory concentration (IC50) (in data set [1]; in [2]; at Human VEGFR-2) were 51.8 µM, 69.7 µM and 0.0527 µM, respectively. The “Cytotoxic activity against the two cell lines (in words)” value in data set [2] is listed as “weak cytotoxic activity”.
Consider `CC(=O)c1ccc(NC(=O)c2ccc(NC(=O)Cn3c(=O)c(C)nc4ccccc43)cc2)cc1` [Compound 11g, N-(4-Acetylphenyl)-4–(2-(3-methyl-2-oxoquinoxalin-1(2H)-yl)acetamido)benzamide], for which the IC50 is 3.8 µM in data set [1], 6.7 µM in [2] and 0.0034 µM at Human VEGFR-2.
For `Cc1nc2ccccc2nc1SCC(=O)Nc1ccc(C(=O)Nc2ccc(F)cc2)cc1` [Compound 12h, N-(4-Fluorophenyl)-4–(2-((3-methylquinoxalin-2-yl)thio)acetamido)benzamide] the same measures were 35.8 µM, 67.8 µM and 0.0514 µM.
As for `CNC(=O)c1ccc(NC(=O)Cn2c(=O)c(C)nc3ccccc32)cc1` [Compound 11a, N-Methyl-4–(2-(3-methyl-2-oxoquinoxalin-1(2H)-yl)acetamido)benzamide], the figures for the IC50 (in data set [1]; in data set [2]; against Human VEGFR-2) were 16.5 µM, 23.9 µM and 0.0112 µM, respectively.
As to `COc1ccccc1NC(=O)c1ccc(NC(=O)CSc2nc3ccccc3nc2C)cc1` [Compound 12d, N-(2-Methoxyphenyl)-4–(2-((3-methylquinoxalin-2-yl)thio)acetamido) benzamide], the figures for the concentration for half-maximal inhibition (IC50) (in data set [1]; in data set [2]; against Human VEGFR-2) were 17.6 µM, 23.5 µM and 0.0134 µM, respectively.
For `Cc1cccc(NC(=O)c2ccc(NC(=O)CSc3nc4ccccc4nc3C)cc2)c1` [Compound 12j, 4–(2-((3-Methylquinoxalin-2-yl)thio)acetamido)-N-(m-tolyl)benzamide], the values for the IC50 (in data set [1]; in [2]; against Human VEGFR-2) were 40.7 µM, 61.2 µM and 0.0378 µM, respectively.
Consider `Cc1nc2ccccc2n(CC(=O)Nc2ccc(C(=O)Nc3ccc(F)cc3)cc2)c1=O` [Compound 11h, N-(4-Fluorophenyl)-4–(2-(3-methyl-2-oxoquinoxalin-1(2H)-yl)acetamido)benzamide], for which the results for the IC50 (in data set [1]; in data set [2]; at Human VEGFR-2) were 22.7 µM, 25.8 µM and 0.0116 µM, respectively. In data set [2], the “Cytotoxic activity against the two cell lines (in words)” value is reported as “weak cytotoxic activity”.
`COc1cccc(NC(=O)c2ccc(NC(=O)CSc3nc4ccccc4nc3C)cc2)c1` [Compound 12e, N-(3-Methoxyphenyl)-4–(2-((3-methylquinoxalin-2-yl)thio)acetamido) benzamide]: the IC50 amounted to 16.7 µM with primary rat hepatocytes, 4.8 µM in data set [1], 5.3 µM in data set [2] and 0.0038 µM against Human VEGFR-2.
